In ChEMBL document CHEMBL4507291 (2021):

Legend:
[1] = target: Ribosomal protein S6 kinase alpha-2 (Homo sapiens) (UniProt Q15349)
[2] = target: Sigma intracellular receptor 2 (Homo sapiens, UniProt Q5BJF2); conditions: Compound concentration 10.0 uM
[3] = target: Serine/threonine-protein kinase 24 (Homo sapiens) (UniProt Q9Y6E0)
[4] = target: Tyrosine-protein kinase receptor UFO (Homo sapiens) (UniProt P30530)
[5] = target: Activin receptor type-1-like (Homo sapiens) (UniProt P37023)
[6] = target: Receptor-interacting serine/threonine-protein kinase 1 (Homo sapiens) (UniProt Q13546)
Chain of Receptor-interacting serine/threonine-protein kinase 1 (Homo sapiens) (Q13546 whole entry): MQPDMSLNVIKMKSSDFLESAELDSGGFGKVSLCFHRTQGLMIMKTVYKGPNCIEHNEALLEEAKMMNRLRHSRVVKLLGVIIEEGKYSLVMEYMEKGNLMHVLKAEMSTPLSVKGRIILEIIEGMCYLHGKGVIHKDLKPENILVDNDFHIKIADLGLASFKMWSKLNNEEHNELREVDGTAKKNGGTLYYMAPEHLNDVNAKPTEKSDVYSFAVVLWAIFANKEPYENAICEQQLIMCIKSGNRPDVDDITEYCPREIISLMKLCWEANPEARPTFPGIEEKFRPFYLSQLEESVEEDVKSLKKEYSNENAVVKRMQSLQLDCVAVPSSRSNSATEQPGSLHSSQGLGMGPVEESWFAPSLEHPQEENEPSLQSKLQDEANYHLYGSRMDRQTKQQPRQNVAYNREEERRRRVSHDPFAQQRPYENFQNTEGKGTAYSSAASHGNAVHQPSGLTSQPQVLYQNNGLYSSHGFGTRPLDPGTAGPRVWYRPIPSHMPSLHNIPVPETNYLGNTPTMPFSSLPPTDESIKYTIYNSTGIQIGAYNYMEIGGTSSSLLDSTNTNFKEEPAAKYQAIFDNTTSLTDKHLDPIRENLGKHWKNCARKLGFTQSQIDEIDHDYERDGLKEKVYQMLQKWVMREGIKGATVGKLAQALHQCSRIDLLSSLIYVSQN

[7] = target: High affinity nerve growth factor receptor (Homo sapiens) (UniProt P04629)
[8] = target: Tyrosine-protein kinase BTK (Homo sapiens) (UniProt Q06187)
[9] = target: Uncharacterized serine/threonine-protein kinase SBK3 (Homo sapiens) (UniProt P0C264)
[10] = test system: Phosphatidylinositol 4,5-bisphosphate 3-kinase catalytic subunit alpha isoform (Homo sapiens), P42336 [C420R]
[11] = target: Serine/threonine-protein kinase B-raf (Homo sapiens) (UniProt P15056)
Chain of Serine/threonine-protein kinase B-raf (Homo sapiens) (P15056 whole entry, canonical isoform): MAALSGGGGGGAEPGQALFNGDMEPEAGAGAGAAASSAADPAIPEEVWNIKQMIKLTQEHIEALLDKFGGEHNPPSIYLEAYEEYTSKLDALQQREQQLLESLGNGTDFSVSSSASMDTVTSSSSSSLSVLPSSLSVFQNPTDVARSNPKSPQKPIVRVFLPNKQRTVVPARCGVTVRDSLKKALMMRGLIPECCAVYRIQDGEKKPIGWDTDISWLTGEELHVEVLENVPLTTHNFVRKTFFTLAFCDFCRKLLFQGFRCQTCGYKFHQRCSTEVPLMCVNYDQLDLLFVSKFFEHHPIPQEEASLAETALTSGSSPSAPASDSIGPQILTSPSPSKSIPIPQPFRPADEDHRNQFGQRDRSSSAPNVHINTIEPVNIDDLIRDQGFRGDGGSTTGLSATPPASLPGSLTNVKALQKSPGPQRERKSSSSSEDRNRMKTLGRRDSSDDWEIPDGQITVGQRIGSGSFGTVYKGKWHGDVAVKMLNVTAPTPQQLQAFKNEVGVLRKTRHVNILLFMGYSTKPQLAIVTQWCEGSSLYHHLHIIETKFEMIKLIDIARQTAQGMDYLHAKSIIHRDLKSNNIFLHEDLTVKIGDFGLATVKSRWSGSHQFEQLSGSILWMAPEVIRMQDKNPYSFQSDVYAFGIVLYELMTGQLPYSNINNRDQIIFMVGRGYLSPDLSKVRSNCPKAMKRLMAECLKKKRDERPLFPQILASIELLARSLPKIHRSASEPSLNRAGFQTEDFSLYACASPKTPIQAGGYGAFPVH

[12] = target: Casein kinase I isoform alpha (Homo sapiens) (UniProt P48729)
Chain of Casein kinase I isoform alpha (Homo sapiens) (P48729 2-337 limits assumed): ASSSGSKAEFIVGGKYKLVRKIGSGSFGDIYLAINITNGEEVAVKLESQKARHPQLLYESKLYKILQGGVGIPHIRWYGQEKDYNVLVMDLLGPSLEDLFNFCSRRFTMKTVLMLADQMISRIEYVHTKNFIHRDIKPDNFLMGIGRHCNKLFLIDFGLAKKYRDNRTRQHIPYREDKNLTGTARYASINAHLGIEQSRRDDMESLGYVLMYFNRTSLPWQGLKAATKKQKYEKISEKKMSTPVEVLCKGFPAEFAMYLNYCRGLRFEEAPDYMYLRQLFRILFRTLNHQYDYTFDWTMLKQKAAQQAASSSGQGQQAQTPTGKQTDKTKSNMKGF

[13] = test system: Tyrosine-protein kinase ABL1 (Homo sapiens), P00519 [F317L]
[14] = target: T1, Tyrosine-protein kinase JAK3 (Homo sapiens) (UniProt P52333)
T1 sequence (whole entry): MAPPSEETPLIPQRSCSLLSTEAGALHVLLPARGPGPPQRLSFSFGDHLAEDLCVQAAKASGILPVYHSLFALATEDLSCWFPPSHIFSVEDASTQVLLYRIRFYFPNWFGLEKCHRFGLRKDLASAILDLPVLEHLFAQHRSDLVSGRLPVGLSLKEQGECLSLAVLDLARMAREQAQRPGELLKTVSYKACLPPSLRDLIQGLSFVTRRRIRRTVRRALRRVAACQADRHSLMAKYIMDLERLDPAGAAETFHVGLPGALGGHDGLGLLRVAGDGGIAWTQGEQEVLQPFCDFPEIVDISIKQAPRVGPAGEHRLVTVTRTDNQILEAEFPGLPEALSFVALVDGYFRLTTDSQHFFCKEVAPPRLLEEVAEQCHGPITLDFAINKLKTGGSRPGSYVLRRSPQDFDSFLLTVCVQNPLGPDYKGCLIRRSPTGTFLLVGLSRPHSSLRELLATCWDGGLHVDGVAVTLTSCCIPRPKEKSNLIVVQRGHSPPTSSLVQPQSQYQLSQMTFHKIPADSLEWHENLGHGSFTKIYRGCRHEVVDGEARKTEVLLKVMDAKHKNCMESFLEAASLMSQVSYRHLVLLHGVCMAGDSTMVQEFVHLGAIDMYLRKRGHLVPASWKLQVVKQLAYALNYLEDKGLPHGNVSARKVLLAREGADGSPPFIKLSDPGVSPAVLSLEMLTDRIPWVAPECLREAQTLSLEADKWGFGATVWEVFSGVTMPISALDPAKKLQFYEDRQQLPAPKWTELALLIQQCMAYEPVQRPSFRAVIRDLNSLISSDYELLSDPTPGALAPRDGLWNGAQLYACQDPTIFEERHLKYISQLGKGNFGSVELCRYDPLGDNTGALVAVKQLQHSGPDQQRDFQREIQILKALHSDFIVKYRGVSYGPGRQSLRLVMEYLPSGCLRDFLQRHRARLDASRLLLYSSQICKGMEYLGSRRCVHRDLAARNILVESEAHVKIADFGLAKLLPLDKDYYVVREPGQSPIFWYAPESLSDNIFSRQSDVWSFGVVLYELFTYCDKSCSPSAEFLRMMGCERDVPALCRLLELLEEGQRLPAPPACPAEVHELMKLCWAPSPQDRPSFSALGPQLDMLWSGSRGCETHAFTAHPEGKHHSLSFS

[15] = target: Mitogen-activated protein kinase 10 (Homo sapiens) (UniProt P53779)
Chain of Mitogen-activated protein kinase 10 (Homo sapiens) (P53779 whole entry): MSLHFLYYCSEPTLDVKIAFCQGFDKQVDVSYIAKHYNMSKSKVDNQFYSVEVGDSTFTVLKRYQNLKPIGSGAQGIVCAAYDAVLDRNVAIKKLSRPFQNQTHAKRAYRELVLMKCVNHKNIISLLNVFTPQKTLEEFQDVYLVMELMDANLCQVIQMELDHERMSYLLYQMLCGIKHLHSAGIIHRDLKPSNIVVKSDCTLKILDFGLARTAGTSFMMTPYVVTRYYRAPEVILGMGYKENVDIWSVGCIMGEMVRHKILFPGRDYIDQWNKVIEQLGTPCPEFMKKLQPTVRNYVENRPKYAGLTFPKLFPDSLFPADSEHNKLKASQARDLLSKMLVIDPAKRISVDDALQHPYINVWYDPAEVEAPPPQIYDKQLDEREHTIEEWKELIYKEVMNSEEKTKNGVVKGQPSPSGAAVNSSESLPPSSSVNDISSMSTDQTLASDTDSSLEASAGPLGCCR

[16] = target: Vascular endothelial growth factor receptor 2 (Homo sapiens) (UniProt P35968)
[17] = target: T2, Mitogen-activated protein kinase kinase kinase 2 (Homo sapiens) (UniProt Q9Y2U5)
T2 sequence (whole entry): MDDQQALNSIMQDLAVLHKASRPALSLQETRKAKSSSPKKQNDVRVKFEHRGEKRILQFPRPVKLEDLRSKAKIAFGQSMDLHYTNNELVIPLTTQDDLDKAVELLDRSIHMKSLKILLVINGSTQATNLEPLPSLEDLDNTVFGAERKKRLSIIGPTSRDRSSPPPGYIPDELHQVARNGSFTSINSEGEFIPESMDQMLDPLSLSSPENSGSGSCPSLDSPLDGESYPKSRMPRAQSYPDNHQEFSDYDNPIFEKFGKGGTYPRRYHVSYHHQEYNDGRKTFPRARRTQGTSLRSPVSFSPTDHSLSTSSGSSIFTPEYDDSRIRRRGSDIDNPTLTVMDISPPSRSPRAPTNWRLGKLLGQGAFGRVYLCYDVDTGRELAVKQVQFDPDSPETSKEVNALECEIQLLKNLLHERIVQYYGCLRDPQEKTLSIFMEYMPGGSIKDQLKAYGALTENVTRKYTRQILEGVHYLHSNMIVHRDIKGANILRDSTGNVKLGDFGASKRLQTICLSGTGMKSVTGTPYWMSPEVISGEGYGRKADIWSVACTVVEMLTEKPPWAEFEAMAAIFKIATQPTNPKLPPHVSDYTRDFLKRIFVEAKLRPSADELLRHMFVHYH

[18] = target: Serine/threonine-protein kinase ULK2 (Homo sapiens) (UniProt Q8IYT8)
[19] = target: Dual specificity protein kinase CLK1 (Homo sapiens) (UniProt P49759)
Chain of Dual specificity protein kinase CLK1 (Homo sapiens) (P49759 whole entry, looked up): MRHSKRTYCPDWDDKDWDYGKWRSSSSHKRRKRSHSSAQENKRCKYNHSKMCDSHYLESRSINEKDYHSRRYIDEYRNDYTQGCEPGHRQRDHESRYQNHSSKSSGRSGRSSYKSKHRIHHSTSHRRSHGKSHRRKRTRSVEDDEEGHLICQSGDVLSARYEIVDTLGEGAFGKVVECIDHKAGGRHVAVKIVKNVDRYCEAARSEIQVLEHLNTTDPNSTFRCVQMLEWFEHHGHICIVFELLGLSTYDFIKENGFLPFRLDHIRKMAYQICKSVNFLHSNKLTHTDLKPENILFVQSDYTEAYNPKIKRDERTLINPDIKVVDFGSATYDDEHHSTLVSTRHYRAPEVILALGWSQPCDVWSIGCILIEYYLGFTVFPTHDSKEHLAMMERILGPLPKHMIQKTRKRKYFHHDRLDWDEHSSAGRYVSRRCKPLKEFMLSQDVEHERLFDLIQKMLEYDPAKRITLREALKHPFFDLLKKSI

[20] = target: Ribosomal protein S6 kinase beta-1 (Homo sapiens) (UniProt P23443)
Chain of Ribosomal protein S6 kinase beta-1 (Homo sapiens) (P23443 whole entry, looked up): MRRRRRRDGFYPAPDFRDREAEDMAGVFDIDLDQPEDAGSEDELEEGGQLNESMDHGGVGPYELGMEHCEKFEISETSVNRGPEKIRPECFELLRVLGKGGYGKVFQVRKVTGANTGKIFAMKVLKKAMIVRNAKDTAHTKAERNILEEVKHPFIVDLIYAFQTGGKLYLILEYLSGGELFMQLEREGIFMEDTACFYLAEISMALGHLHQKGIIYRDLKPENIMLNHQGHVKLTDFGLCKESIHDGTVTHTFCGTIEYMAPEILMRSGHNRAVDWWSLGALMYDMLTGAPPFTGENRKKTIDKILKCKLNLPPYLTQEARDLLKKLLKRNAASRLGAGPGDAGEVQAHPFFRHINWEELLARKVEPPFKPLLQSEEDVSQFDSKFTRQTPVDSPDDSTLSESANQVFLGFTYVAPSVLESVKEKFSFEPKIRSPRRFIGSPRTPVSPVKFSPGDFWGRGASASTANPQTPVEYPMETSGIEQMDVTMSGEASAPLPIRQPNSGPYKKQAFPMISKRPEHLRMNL

[21] = target: Tyrosine-protein kinase receptor Tie-1 (Homo sapiens) (UniProt P35590)
[22] = test system: Fibroblast growth factor receptor 3 (Homo sapiens), P22607 [G697C]
Chain of Fibroblast growth factor receptor 3 (Homo sapiens), P22607 [G697C] (P22607 whole entry G697C): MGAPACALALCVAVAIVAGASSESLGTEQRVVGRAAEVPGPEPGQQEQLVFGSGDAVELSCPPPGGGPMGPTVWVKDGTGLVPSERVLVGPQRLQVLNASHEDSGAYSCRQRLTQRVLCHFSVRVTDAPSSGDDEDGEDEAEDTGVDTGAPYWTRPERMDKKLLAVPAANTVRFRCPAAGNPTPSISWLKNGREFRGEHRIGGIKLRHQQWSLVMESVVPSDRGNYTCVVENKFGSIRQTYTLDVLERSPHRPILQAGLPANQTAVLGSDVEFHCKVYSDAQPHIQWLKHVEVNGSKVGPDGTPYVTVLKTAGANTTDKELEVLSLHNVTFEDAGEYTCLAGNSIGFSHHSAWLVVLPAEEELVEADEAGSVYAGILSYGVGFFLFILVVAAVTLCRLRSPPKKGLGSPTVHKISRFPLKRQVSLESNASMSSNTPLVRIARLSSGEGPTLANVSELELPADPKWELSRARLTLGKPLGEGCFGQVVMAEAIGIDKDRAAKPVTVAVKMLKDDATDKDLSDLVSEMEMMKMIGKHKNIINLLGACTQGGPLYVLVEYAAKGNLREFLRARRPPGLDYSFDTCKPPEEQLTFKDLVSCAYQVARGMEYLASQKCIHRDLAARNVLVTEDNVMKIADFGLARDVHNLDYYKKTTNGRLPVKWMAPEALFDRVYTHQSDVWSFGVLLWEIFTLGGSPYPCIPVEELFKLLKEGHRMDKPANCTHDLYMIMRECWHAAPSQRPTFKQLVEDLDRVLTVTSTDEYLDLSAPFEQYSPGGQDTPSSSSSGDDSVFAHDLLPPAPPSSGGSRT

[23] = Compound concentration 1000.0 nM
[24] = Compound concentration 100.0 nM

Chain of Sigma intracellular receptor 2 (Q5BJF2 whole entry): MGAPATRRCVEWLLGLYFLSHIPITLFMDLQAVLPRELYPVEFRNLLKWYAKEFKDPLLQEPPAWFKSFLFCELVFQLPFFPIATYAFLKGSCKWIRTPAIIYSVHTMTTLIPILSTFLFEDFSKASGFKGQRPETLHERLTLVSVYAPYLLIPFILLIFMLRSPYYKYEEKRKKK
Chain of Serine/threonine-protein kinase 24 (Homo sapiens) (Q9Y6E0 whole entry, looked up): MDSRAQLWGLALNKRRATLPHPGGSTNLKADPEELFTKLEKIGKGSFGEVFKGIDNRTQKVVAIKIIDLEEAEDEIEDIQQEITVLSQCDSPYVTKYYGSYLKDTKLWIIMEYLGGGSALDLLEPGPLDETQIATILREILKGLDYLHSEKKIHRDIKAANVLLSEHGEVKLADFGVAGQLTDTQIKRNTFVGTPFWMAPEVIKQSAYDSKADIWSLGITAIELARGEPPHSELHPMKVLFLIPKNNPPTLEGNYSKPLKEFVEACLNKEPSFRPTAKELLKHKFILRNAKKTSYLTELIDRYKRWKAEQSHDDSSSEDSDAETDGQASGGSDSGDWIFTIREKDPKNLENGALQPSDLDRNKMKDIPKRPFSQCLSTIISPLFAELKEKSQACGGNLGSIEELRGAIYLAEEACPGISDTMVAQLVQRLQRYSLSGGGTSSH

C[C@@H]1CN(c2cc(-c3nn(C)c4ccc(OC5(C)CC5)cc34)ncn2)C[C@H](C)O1 [MLi-2-NC]
inactive: residual activity [1, 23] 100% | residual activity [3, 23] 79% | residual activity [4, 23] 100% | residual activity [5, 23] 63% | residual activity [6, 23] 98% | residual activity [7, 23] 76% | residual activity [8, 23] 80% | residual activity [9, 23] 100% | residual activity [10, 23] 100% | residual activity [11, 23] 68% | residual activity [12, 23] 100% | residual activity [13, 23] 67% | residual activity [15, 23] 71% | residual activity [16, 23] 75% | residual activity [17, 23] 83% | residual activity [18, 23] 59% | residual activity [19, 23] 86% | residual activity [20, 23] 100% | residual activity [21, 23] 92% | residual activity [22, 23] 100%
active: inhibition [2] 90.4% | residual activity [14, 23] 12%

C[C@@H]1CN(c2cc(-c3n[nH]c4ccc(OC5(C)CC5)cc34)ncn2)C[C@H](C)O1 [MLi-2]
active: inhibition [2] 50.4% | residual activity [14, 24] 0%
inactive: residual activity [1, 24] 100% | residual activity [3, 24] 96% | residual activity [4, 24] 100% | residual activity [5, 24] 94% | residual activity [6, 24] 100% | residual activity [7, 24] 73% | residual activity [8, 24] 73% | residual activity [9, 24] 100% | residual activity [10, 24] 72% | residual activity [11, 24] 91% | residual activity [12, 24] 73% | residual activity [13, 24] 73% | residual activity [15, 24] 77% | residual activity [16, 24] 82% | residual activity [17, 24] 73% | residual activity [18, 24] 69% | residual activity [19, 24] 86% | residual activity [20, 24] 73% | residual activity [21, 24] 67% | residual activity [22, 24] 86%
